{"source": "patent US6914045B2", "about": "“Glycopeptide antibiotics” (Wyeth Holdings Corporation, priority 2001, dated 2005)", "assay_in_all_cases": "in vitro antibacterial evaluation, MIC by broth dilution", "type_in_all_cases": "cell-based", "key": {"Enterococcus sp.": {"tested_on": "Enterococcus sp.", "details": "broth dilution, 18 hours at 35° C.", "summary_of_the_method": "(§1)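 MIC = lowest antibiotic concentration preventing visible growth; inoculum 5×10^5 CFU/mL; drug range 64-0.06 μg/mL; Muller-Hinton II […]; NCCLS M7-A2 guidance.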"}, "Staphylococcus sp.": {"tested_on": "Staphylococcus sp.", "details": "broth dilution, 18 hours at 35° C.", "summary_of_the_method": "as §1"}, "Streptococcus sp.": {"tested_on": "Streptococcus sp.", "details": "broth dilution, 18 hours at 35° C.", "summary_of_the_method": "as §1"}, "Escherichia coli": {"tested_on": "Escherichia coli", "details": "18 hours at 35° C."}}}
{"molecule": "CC(c1ccccc1)C1NC(=O)CNC(=O)C(CO)NC(=O)C(C(O)C2CNC(=N)N2C2OC(CO)C(O)C3OC(C)(C)OC32)NC(=O)C(C(O)C2CNC(=N)N2)NC(=O)C(Cc2ccc(OC3OC(CO)C(OC4OC5COC(C)(C)OC5C5OC(C)(C)OC45)C4OC(C)(C)OC34)cc2)NC1=O", "note": "(stereo not shown) [Example 229b]", "values": [{"measurement": "MIC Enterococcus avium (GC 4558)", "setting": "Enterococcus sp.", "value": 64, "unit": "µg/mL"}, {"measurement": "MIC Enterococcus faecalis (ATCC 29212)", "setting": "Enterococcus sp.", "value": ">128", "unit": "µg/mL"}, {"measurement": "MIC Enterococcus faecalis (GC 2242)", "setting": "Enterococcus sp.", "value": 128, "unit": "µg/mL"}, {"measurement": "MIC Enterococcus faecalis (GC 2691)", "setting": "Enterococcus sp.", "value": ">128", "unit": "µg/mL"}, {"measurement": "MIC Enterococcus faecalis (GC 3059)", "setting": "Enterococcus sp.", "value": ">128", "unit": "µg/mL"}, {"measurement": "MIC Enterococcus faecalis (GC 4552)", "setting": "Enterococcus sp.", "value": ">128", "unit": "µg/mL"}, {"measurement": "MIC Enterococcus faecalis (GC 4553)", "setting": "Enterococcus sp.", "value": 128, "unit": "µg/mL"}, {"measurement": "MIC Enterococcus faecalis (GC 4554)", "setting": "Enterococcus sp.", "value": ">128", "unit": "µg/mL"}, {"measurement": "MIC Enterococcus faecalis (GC 6189)", "setting": "Enterococcus sp.", "value": ">128", "unit": "µg/mL"}, {"measurement": "MIC Enterococcus faecium (GC 2243)", "setting": "Enterococcus sp.", "value": ">128", "unit": "µg/mL"}, {"measurement": "MIC Enterococcus faecium (GC 4556)", "setting": "Enterococcus sp.", "value": ">128", "unit": "µg/mL"}, {"measurement": "MIC Enterococcus faecium (GC 4557)", "setting": "Enterococcus sp.", "value": 128, "unit": "µg/mL"}, {"measurement": "MIC Enterococcus faecalis (ATCC 29212)", "setting": "Enterococcus sp.; inoculum 5×10^5 CFU/mL, strain ATCC 29212", "value": ">128", "unit": "µg/mL"}, {"measurement": "MIC Enterococcus faecalis (GC 2242)", "setting": "Enterococcus sp.; inoculum 5×10^5 CFU/mL, strain GC 2242", "value": 128, "unit": "µg/mL"}, {"measurement": "MIC Enterococcus faecium (GC 2243)", "setting": "Enterococcus sp.; inoculum 5×10^5 CFU/mL, strain GC 2243", "value": ">128", "unit": "µg/mL"}, {"measurement": "MIC Enterococcus faecalis (GC 2691)", "setting": "Enterococcus sp.; inoculum 5×10^5 CFU/mL, strain GC 2691", "value": ">128", "unit": "µg/mL"}, {"measurement": "MIC Enterococcus faecalis (GC 3059)", "setting": "Enterococcus sp.; inoculum 5×10^5 CFU/mL, strain GC 3059", "value": ">128", "unit": "µg/mL"}, {"measurement": "MIC Enterococcus faecalis (GC 4552)", "setting": "Enterococcus sp.; inoculum 5×10^5 CFU/mL, strain GC 4552", "value": ">128", "unit": "µg/mL"}, {"measurement": "MIC Enterococcus faecalis (GC 4553)", "setting": "Enterococcus sp.; inoculum 5×10^5 CFU/mL, strain GC 4553", "value": 128, "unit": "µg/mL"}, {"measurement": "MIC Enterococcus faecalis (GC 4554)", "setting": "Enterococcus sp.; inoculum 5×10^5 CFU/mL, strain GC 4554", "value": ">128", "unit": "µg/mL"}, {"measurement": "MIC Enterococcus faecium (GC 4556)", "setting": "Enterococcus sp.; inoculum 5×10^5 CFU/mL, strain GC 4556", "value": ">128", "unit": "µg/mL"}, {"measurement": "MIC Enterococcus faecium (GC 4557)", "setting": "Enterococcus sp.; inoculum 5×10^5 CFU/mL, strain GC 4557", "value": 128, "unit": "µg/mL"}, {"measurement": "MIC Enterococcus avium (GC 4558)", "setting": "Enterococcus sp.; inoculum 5×10^5 CFU/mL, strain GC 4558", "value": 64, "unit": "µg/mL"}, {"measurement": "MIC Enterococcus faecalis (GC 6189)", "setting": "Enterococcus sp.; inoculum 5×10^5 CFU/mL, strain GC 6189", "value": ">128", "unit": "µg/mL"}, {"measurement": "MIC Coagulase Negative Staphylococcus (GC 4547)", "setting": "Staphylococcus sp.", "value": ">128", "unit": "µg/mL"}, {"measurement": "MIC Coagulase Negative Staphylococcus (GC 4548)", "setting": "Staphylococcus sp.", "value": ">128", "unit": "µg/mL"}, {"measurement": "MIC Coagulase Negative Staphylococcus (GC 4549)", "setting": "Staphylococcus sp.", "value": ">128", "unit": "µg/mL"}, {"measurement": "MIC Coagulase Negative Staphylococcus (GC 4551)", "setting": "Staphylococcus sp.", "value": ">128", "unit": "µg/mL"}, {"measurement": "MIC Coagulase Negative Staphylococcus (GC 6257)", "setting": "Staphylococcus sp.", "value": ">128", "unit": "µg/mL"}, {"measurement": "MIC Staphylococcus aureus (ATCC 29213)", "setting": "Staphylococcus sp.", "value": ">128", "unit": "µg/mL"}, {"measurement": "MIC Staphylococcus aureus (GC 1131)", "setting": "Staphylococcus sp.", "value": ">128", "unit": "µg/mL"}, {"measurement": "MIC Staphylococcus aureus (GC 3051)", "setting": "Staphylococcus sp.", "value": ">128", "unit": "µg/mL"}, {"measurement": "MIC Staphylococcus aureus (GC 3053)", "setting": "Staphylococcus sp.", "value": ">128", "unit": "µg/mL"}, {"measurement": "MIC Staphylococcus aureus (GC 4541)", "setting": "Staphylococcus sp.", "value": ">128", "unit": "µg/mL"}, {"measurement": "MIC Staphylococcus aureus (GC 4542)", "setting": "Staphylococcus sp.", "value": ">128", "unit": "µg/mL"}, {"measurement": "MIC Staphylococcus aureus (GC 4544)", "setting": "Staphylococcus sp.", "value": ">128", "unit": "µg/mL"}, {"measurement": "MIC Staphylococcus aureus (GC 4545)", "setting": "Staphylococcus sp.", "value": ">128", "unit": "µg/mL"}, {"measurement": "MIC Staphylococcus aureus-SMITH (GC 4543)", "setting": "Staphylococcus sp.", "value": ">128", "unit": "µg/mL"}, {"measurement": "MIC Staphylococcus haemolyticus (GC 4546)", "setting": "Staphylococcus sp.", "value": ">128", "unit": "µg/mL"}, {"measurement": "MIC Staphylococcus aureus (ATCC 29213)", "setting": "Staphylococcus sp.; strain ATCC 29213", "value": ">128", "unit": "µg/mL"}, {"measurement": "MIC Staphylococcus aureus (GC 1131)", "setting": "Staphylococcus sp.; strain GC 1131", "value": ">128", "unit": "µg/mL"}, {"measurement": "MIC Staphylococcus aureus (GC 3051)", "setting": "Staphylococcus sp.; strain GC 3051", "value": ">128", "unit": "µg/mL"}, {"measurement": "MIC Staphylococcus aureus (GC 3053)", "setting": "Staphylococcus sp.; strain GC 3053", "value": ">128", "unit": "µg/mL"}, {"measurement": "MIC Staphylococcus aureus (GC 4541)", "setting": "Staphylococcus sp.; strain GC 4541", "value": ">128", "unit": "µg/mL"}, {"measurement": "MIC Staphylococcus aureus (GC 4542)", "setting": "Staphylococcus sp.; strain GC 4542", "value": ">128", "unit": "µg/mL"}, {"measurement": "MIC Staphylococcus aureus-SMITH (GC 4543)", "setting": "Staphylococcus sp.; strain GC 4543", "value": ">128", "unit": "µg/mL"}, {"measurement": "MIC Staphylococcus aureus (GC 4544)", "setting": "Staphylococcus sp.; strain GC 4544", "value": ">128", "unit": "µg/mL"}, {"measurement": "MIC Staphylococcus aureus (GC 4545)", "setting": "Staphylococcus sp.; strain GC 4545", "value": ">128", "unit": "µg/mL"}, {"measurement": "MIC Staphylococcus haemolyticus (GC 4546)", "setting": "Staphylococcus sp.; strain GC 4546", "value": ">128", "unit": "µg/mL"}, {"measurement": "MIC Coagulase Negative Staphylococcus (GC 4547)", "setting": "Staphylococcus sp.; strain GC 4547", "value": ">128", "unit": "µg/mL"}, {"measurement": "MIC Coagulase Negative Staphylococcus (GC 4548)", "setting": "Staphylococcus sp.; strain GC 4548", "value": ">128", "unit": "µg/mL"}, {"measurement": "MIC Coagulase Negative Staphylococcus (GC 4549)", "setting": "Staphylococcus sp.; strain GC 4549", "value": ">128", "unit": "µg/mL"}, {"measurement": "MIC Coagulase Negative Staphylococcus (GC 4551)", "setting": "Staphylococcus sp.; strain GC 4551", "value": ">128", "unit": "µg/mL"}, {"measurement": "MIC Coagulase Negative Staphylococcus (GC 6257)", "setting": "Staphylococcus sp.; strain GC 6257", "value": ">128", "unit": "µg/mL"}, {"measurement": "MIC Streptococcus agalactiae (GC 4564)", "setting": "Streptococcus sp.", "value": ">128", "unit": "µg/mL"}, {"measurement": "MIC Streptococcus pneumoniae (ATCC 6301)", "setting": "Streptococcus sp.", "value": 128, "unit": "µg/mL"}, {"measurement": "MIC Streptococcus pneumoniae (GC 1894)", "setting": "Streptococcus sp.", "value": 128, "unit": "µg/mL"}, {"measurement": "MIC Streptococcus pneumoniae (GC 4565)", "setting": "Streptococcus sp.", "value": 128, "unit": "µg/mL"}, {"measurement": "MIC Streptococcus pyogenes (GC 4563)", "setting": "Streptococcus sp.", "value": ">128", "unit": "µg/mL"}, {"measurement": "MIC Streptococcus pneumoniae (ATCC 6301)", "setting": "Streptococcus sp.; inoculum 5×10^5 CFU/mL, strain ATCC 6301", "value": 128, "unit": "µg/mL"}, {"measurement": "MIC Streptococcus pneumoniae (GC 1894)", "setting": "Streptococcus sp.; inoculum 5×10^5 CFU/mL, strain GC 1894", "value": 128, "unit": "µg/mL"}, {"measurement": "MIC Streptococcus pyogenes (GC 4563)", "setting": "Streptococcus sp.; inoculum 5×10^5 CFU/mL, strain GC 4563", "value": ">128", "unit": "µg/mL"}, {"measurement": "MIC Streptococcus agalactiae (GC 4564)", "setting": "Streptococcus sp.; inoculum 5×10^5 CFU/mL, strain GC 4564", "value": ">128", "unit": "µg/mL"}, {"measurement": "MIC Streptococcus pneumoniae (GC 4565)", "setting": "Streptococcus sp.; inoculum 5×10^5 CFU/mL, strain GC 4565", "value": 128, "unit": "µg/mL"}, {"measurement": "MIC Escherichia coli (ATCC 25922)", "setting": "Escherichia coli", "value": ">128", "unit": "µg/mL"}, {"measurement": "MIC Escherichia coli (GC 4559)", "setting": "Escherichia coli", "value": ">128", "unit": "µg/mL"}, {"measurement": "MIC Escherichia coli (GC 4560)", "setting": "Escherichia coli", "value": 32, "unit": "µg/mL"}]}
